The test system of one experiment is left atrium. Nature of the experiment: Functional studies in pacing-induced CHF and control canine subjects: left atrial ERPs under autonomic manipulation. The experiment is classed as in vivo. On the procedure: Canine subjects were divided into three groups. In group 1, CHF was induced by rapid ventricular pacing for 4 weeks (i.e. when the animals began to develop clinical heart failure. In group 2, pacing was performed for only 3 weeks. Group three were control canine subjects not subjected to rapid ventricular pacing. At the end of follow up period, high-density epicardial mapping was performed in the PVs, the PLA and the LAA. ERPs were obtained at multiple sites under the following conditions: a) baseline (BSL), b) left cervical vagal stimulation at 20 Hz (VS), c) beta-stimulation with isoproterenol (ISO), d) beta-blockade with propranolol (PROP) and e) beta-blockade+vagal stimulation (P+VS). VS caused significant mean ERP shortening in all three groups. […] PROP increased the VS effect on ERP in normal controls, but produced an attenuation of this effect in the CHF group (SEE FIG. 37). In this CHF model, after 4 weeks of pacing, an increased vagal effect on atrial refractoriness, an increased cumulative sympathetic effect, and a change in the sympatho-vagal interactions of the left atrium were observed. After 3 weeks of pacing, there is pronounced autonomic remodeling, with evidence of P as well S nerve upregulation in the PVs and left atrium. Both P and S upregulation are more pronounced in the PLA (and to a lesser extent in the PVs) than in the rest of the left atrium. While vagal responsiveness in the left atrium is unaltered at 3 weeks of pacing, it increases after 4 weeks of pacing. […] The autonomic remodeling becomes more pronounced with increasing duration of pacing. […] The increase in β1 binding is consistent with the increase in sympathetic innervation. […] The P upregulation noted in the left atrium in CHF is a compensatory response to S upregulation that occurs in response to CHF. […] However, since normal atria are more densely innervated with vagal fibers (than the ventricle) and also contain a significant amount of IKAch, the compensatory response is likely to be more vigorous in the atrium. The compensatory increase in vagal innervations, and resulting increase in IKAch, may contribute to increased AF substrate.

In experiment [1] the target is T1, M2R|Gαi/o interactions (Canis lupus familiaris, UniProt A0A8I3N4M6).
T1 construct: from tissue; host or cells: posterior left atrium of intact dogs (in vivo), 3 days after minigene injection and electroporation
T1 sequence (A0A8I3N4M6 1-466): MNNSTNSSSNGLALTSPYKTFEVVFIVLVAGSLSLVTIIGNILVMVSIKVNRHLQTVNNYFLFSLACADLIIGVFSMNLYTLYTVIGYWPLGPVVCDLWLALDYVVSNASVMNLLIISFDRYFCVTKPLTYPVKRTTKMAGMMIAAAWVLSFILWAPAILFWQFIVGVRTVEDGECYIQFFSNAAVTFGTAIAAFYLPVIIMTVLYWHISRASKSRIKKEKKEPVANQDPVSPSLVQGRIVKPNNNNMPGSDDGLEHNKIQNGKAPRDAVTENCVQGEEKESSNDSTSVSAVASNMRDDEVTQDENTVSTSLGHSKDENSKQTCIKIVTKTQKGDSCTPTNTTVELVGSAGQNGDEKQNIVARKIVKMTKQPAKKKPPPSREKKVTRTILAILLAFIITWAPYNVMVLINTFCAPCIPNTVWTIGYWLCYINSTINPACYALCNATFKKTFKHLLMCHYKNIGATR
The experiment is described as follows: Gαx minigenes in the PLA: CCh-induced ERP shortening and AF 3 days after delivery. The experiment is classed as in vivo, dog. On the procedure:
(§1) In a small number of pilot experiments (N=6), 1 mg of Gαi2ctp or GαRp minigene was injected subepicardially in the PLA (also see Results). In the remaining experiments, 15-20 mg of ct-Gαi2ctp (N=5), or 7-10 mg of Gαi2ctp+7-10 mg of Gαo1ctp (N=3), or GαRp (N=5) minigenes was injected in the PLA. Minigenes were made up to a volume of 4 ml and injected at multiple sites (6-8 equally spaced sites, 0.5-1 cm apart; a volume of approximately 0.5 ml was injected at each site) in the PLA so as to cover the entire area between the PVs. […] Immediately after gene injection, electroporation was performed at each site of injection as follows: two gold-plated, needle-style electrodes (10 mm length each) were placed at each gene injection site on the PLA, with an inter-electrode distance of 5 mm; electroporation with performed as previously described in the lung by Dean et al^14, with 8 pulses of is at […] (ECM 830, Harvard Bioscience, Holliston, Mass.). After minigene delivery, the chest was closed and the animal allowed to recover. Vagal stimulation and electrophysiological testing were not performed at baseline, in order to minimize damage to the vagus nerve.
CCh application: ERP shortening was assessed by direct application of CCh, a non-selective MR agonist, to the PLA. […] After each dose, ERP testing was performed in the PLA.
(§2) Atrial Fibrillation Inducibility: AF was defined as an atrial arrhythmia that was irregular in at least one of the recording electrodes. Regular atrial arrhythmias—e.g., atrial flutter and atrial tachycardia—were excluded from AF analysis. AF inducibility was measured as the inducibility index and duration of AF episodes after a single extrastimulus^8,15. As previously described, the inducibility index was defined as the number of AF episodes lasting more than 5 seconds induced by a single atrial extrastimulus divided by the total number of single atrial extrastimuli delivered to measure each ERP (at least 3 for each site)^8. The inducibility index was compared for each maneuver. Mean AF duration for each intervention was also assessed. All data was acquired by a 128-channel mapping system (Prucka Cardiolab, GE, WI) at a sampling rate of 977 Hz. All AF episodes induced during extrastimulus testing were stored for offline analysis. After all ERPs had been obtained, minigene injection was performed as described below.
(§3) Effective Refractory Periods. For each ERP, the pacing protocol was composed of a drive train (S1) of eight beats with a cycle length of 400 ms followed by an extrastimulus (S2). The S2 was decremented by 10 ms until loss of capture. […] Pacing was performed at an output current twice the threshold required for consistent capture of the tissue. The mean ERP was used as the representative ERP for each of the three sites as well as the entire left atrium.

Experiment [2] deals with T1, M2R|Gαi/o interactions. Nature of the experiment: Gαx minigenes in the PLA: vagal-induced ERP shortening, AF inducibility, AF duration and dominant frequency 3 days after delivery. The experiment is classed as in vivo, dog. On the procedure: as §1
Baseline study: Three days after the initial study, the chest was re-opened. […] The PV plaque was placed circumferentially around the vein while the other two plaques were laid flat on the PLA and LAA epicardium. Effective refractory periods (ERPs) were obtained from 5, 6, and 4 sites on the PV, PLA, and LAA plaque, respectively, at baseline.
Vagal stimulation: For vagal stimulation, the left cervical vagus nerve was isolated, a bipolar stainless steel electrode was attached to the nerve, and stimulation was performed at 20 Hz (15-20V, 2-8 ms) (Grass S44G, Astromed Inc, R1). A vagal response was defined as: 1) sinus node slowing by at least 25% or 2) PR prolongation by more than 25% or 2:1 AV block^13. ERP testing was performed in the presence and absence of VS.
as §2
Offline Electrogram Analysis. Electrograms recorded during the maximum duration AF episodes obtained during extrastimulus testing were analyzed with dominant frequency (DF) analysis. DF is an estimation of activation rate calculated as the frequency with the most power in the power spectrum. The power spectrum is obtained from the Fast Fourier Transform of an electrogram after rectification and low pass filtering (20 Hz). These analyses were performed offline using Matlab (Mathworks, Natick, Mass.).
as §3

For a further experiment, the system named is Gαi. The experiment is described as follows: cp-Gα peptide delivery to the PLA with electroporation/sonoporation: ERPs and AF inducibility with vagal stimulation. The experiment is classed as in vivo, canine. On the procedure:
High-density epicardial mapping was performed in the PVs (2×2 electrodes), the PLA (7×3 electrodes) and the left atrial appendage (LAA) (7×3 electrodes) of canine subjects. Effective refractory periods (ERPs) were obtained at baseline and in response left cervical vagal stimulation (VS) (20 Hz). Cp-Gαi2 peptide (200-330 nM) was then applied topically to the epicardial aspect of the PLA in a canine subgroup. Cp-Gαi3 peptide (200-330 nM) was then applied topically to the epicardial aspect of the PLA of a second subgroup. Electroporation was performed after the application of peptide to enhance intracellular delivery of the peptide. ERPs were then re-measured in the presence and absence of VS.
In canine subjects, high-density epicardial mapping was performed in the PVs (2×2 electrodes), the PLA (7×3 electrodes) and the left atrial appendage (LAA) (7×3 electrodes). Effective refractory periods (ERPs) were obtained at baseline and in response left cervical vagal stimulation (VS) (20 Hz). FLAG-tcp-Gα peptides (200 nM-3 μM of cp-Gαi1/2 (N=8 canine subjects), cp-Gαi3 (N=4 canine subjects), or random-sequence cp-GαoR peptide (N=3 canine subjects) were injected into the PLA epicardium of the canine subjects followed by either sonoporation or electroporation. In a subgroup of the canine subjects, sonoporation or electroporation alone was performed without introduction of cp-Gαi peptide. ERPs were then re-measured in the presence and absence of VS. In a separate set of control animals, ERPs were measured before and after the administration of systemic autonomic blockade with propranolol (0.2 mg/kg)+atropine (0.04 mg/kg).

Where [3] appears, read: 200 nM-3 μM injected into PLA + sono/electroporation.

Ends that are not written are not given here.

These results are taken from patent publication US8518884B2, “Methods for treating atrial or ventricular arrhythmias by administering a G-protein alpha inhibitor” (Northwestern University, priority 2008, dated 2013).

Regarding `CC(C)NCC(O)COc1cccc2ccccc12` (stereo not drawn) [PROP, propranolol], the “effect on ERPs” value was “ERP lengthening” in the experiment on left atrium (CHF canine subjects) and “significant shortening of ERPs” in the experiment on left atrium (control canine subjects). Further, the “effect on the VS effect on ERP” value in the experiment with left atrium (CHF group) is given as “attenuation”; in the experiment with left atrium (normal controls), “increased”.
For IKNNLKDCGLF [Gαi2ctp], the “CCh-induced ERP shortening in the PLA” value is “significantly less” at M2R|Gαi/o interactions [1] (3 μM, 10 μM CCh, compared to GαRp dogs); “no significant difference” on M2R|Gαi/o interactions [1] (30 μM CCh, compared to GαRp dogs); “only at 30 μM CCh” at M2R|Gαi/o interactions [1] (CCh 3, 10 and 30 μM, compared to baseline ERP). The “AF duration in response to CCh” value on M2R|Gαi/o interactions [1] (vs. GαRp dogs) is reported as “significantly less”. Moreover, the “AF inducibility in response to CCh” value on M2R|Gαi/o interactions [1] (vs. GαRp dogs) was “significantly less”. Further, the “vagal-induced ERP shortening in the PLA” value on M2R|Gαi/o interactions [2] (3 days after minigene delivery, mean±SE) was 19.5 ± 5.0 ms; at M2R|Gαi/o interactions [2] (compared to GαRcpt, FIG. 29A) it was “attenuated”. For the same compound, at M2R|Gαi/o interactions [2] (compared to GαRp dogs), the “vagal-induced ERP shortening in the PV and LAA” value is listed as “no significant difference”. Also, on M2R|Gαi/o interactions [2] (inducibility index, vs. GαRp dogs), the “AF inducibility in response to VS” value was “significantly less”. In addition, the “VS-induced increase in AF dominant frequency (DF)” value on M2R|Gαi/o interactions [2] (vs. GαRp dogs) is “significantly less”. In addition, the “mean AF duration in response to VS” value on M2R|Gαi/o interactions [2] (vs. GαRp dogs) is on record as “significantly less”.
With “cp-Gαi3: cell-penetrating poly-arginine tagged Gαi3 C-terminal peptide (IKNNLKECGLY; also: cell-penetrating poly-arginine tag, length and site not given here)”, in the experiment on Gαi (setting [3]), the “VS-induced ERP shortening in the LAA” value is reported as “reduced” and the “VS-induced ERP shortening in the PLA” value is on record as “eliminated”. In addition, the “VS induced ERP shortening” value in the experiment on Gαi (200-330 nM topical to PLA + electroporation, PLA, PV and LAA) is “significantly attenuated”.
